Results: publication PMC6704710, “Preclinical evaluation of 3D185, a novel potent inhibitor of FGFR1/2/3 and CSF-1R, in FGFR-dependent and macrophage-dominant cancer models” (Journal of Experimental & Clinical Cancer Research : CR, 2019)
Read-outs that look alike come from different tables or passages of the source.

Legend:
ULK3(h) = biological target: T1, ULK3(h) (Homo sapiens, UniProt Q6PHR2); experiment: Eurofins kinase panel; assay type: biochemical; details: read-out: Inhibition rate (%)
T1 construct: purchased Eurofins (KinaseProfiler)
T1 sequence (Q6PHR2 1-472): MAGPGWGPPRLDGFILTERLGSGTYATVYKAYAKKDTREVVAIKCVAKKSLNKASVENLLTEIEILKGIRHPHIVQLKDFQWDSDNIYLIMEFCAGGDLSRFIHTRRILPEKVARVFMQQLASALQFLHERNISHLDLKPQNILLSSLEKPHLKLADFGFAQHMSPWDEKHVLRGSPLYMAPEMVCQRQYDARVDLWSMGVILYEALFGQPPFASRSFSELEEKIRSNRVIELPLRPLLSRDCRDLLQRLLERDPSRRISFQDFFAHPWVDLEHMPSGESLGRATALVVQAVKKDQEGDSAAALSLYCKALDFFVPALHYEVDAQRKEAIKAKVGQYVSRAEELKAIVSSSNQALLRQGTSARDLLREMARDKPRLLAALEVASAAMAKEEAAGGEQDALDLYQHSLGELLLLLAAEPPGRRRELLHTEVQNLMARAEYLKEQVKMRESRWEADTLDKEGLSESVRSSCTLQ

JNK1α1(h) = biological target: T2, JNK1α1(h) (Homo sapiens, UniProt P45983); experiment: Eurofins kinase panel; assay type: biochemical; details: read-out: Inhibition rate (%)
T2 construct: purchased Eurofins (KinaseProfiler)

PKBα(h) = biological target: T3, PKBα(h) (Homo sapiens, UniProt P31749); experiment: Eurofins kinase panel; assay type: biochemical; details: read-out: Inhibition rate (%)
T3 construct: purchased Eurofins (KinaseProfiler)
T3 sequence (P31749 whole entry): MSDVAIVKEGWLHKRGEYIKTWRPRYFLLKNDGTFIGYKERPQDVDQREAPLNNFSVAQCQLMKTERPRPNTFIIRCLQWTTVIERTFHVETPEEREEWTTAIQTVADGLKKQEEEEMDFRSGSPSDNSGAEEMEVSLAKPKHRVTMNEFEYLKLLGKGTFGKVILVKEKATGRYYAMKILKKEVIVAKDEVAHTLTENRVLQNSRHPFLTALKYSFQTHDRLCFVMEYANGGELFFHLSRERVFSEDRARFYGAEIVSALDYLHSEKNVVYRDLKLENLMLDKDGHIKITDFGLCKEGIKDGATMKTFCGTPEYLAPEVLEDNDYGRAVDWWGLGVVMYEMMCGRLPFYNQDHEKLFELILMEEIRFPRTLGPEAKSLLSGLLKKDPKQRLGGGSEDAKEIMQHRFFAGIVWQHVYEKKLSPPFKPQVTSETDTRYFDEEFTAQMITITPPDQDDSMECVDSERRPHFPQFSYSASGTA

GSK3α(h) = biological target: T4, GSK3α(h) (Homo sapiens, UniProt P49840); experiment: Eurofins kinase panel; assay type: biochemical; details: read-out: Inhibition rate (%)
T4 construct: purchased Eurofins (KinaseProfiler)
T4 sequence (P49840 whole entry): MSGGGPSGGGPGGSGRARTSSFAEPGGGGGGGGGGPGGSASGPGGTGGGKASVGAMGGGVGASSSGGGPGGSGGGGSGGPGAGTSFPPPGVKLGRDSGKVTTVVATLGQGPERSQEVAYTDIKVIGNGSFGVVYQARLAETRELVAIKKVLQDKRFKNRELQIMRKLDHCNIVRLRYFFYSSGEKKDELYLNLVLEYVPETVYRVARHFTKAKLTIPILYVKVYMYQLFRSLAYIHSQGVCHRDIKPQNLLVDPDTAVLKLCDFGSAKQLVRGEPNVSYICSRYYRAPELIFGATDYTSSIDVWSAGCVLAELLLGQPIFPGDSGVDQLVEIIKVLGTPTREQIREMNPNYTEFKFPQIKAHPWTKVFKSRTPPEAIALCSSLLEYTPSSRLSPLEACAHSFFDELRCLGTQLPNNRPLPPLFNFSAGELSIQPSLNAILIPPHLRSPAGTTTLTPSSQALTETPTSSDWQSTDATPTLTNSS

MSK1(h) = biological target: T5, MSK1(h) (Homo sapiens, UniProt O75582); experiment: Eurofins kinase panel; assay type: biochemical; details: read-out: Inhibition rate (%)
T5 construct: purchased Eurofins (KinaseProfiler)
T5 sequence (O75582 whole entry): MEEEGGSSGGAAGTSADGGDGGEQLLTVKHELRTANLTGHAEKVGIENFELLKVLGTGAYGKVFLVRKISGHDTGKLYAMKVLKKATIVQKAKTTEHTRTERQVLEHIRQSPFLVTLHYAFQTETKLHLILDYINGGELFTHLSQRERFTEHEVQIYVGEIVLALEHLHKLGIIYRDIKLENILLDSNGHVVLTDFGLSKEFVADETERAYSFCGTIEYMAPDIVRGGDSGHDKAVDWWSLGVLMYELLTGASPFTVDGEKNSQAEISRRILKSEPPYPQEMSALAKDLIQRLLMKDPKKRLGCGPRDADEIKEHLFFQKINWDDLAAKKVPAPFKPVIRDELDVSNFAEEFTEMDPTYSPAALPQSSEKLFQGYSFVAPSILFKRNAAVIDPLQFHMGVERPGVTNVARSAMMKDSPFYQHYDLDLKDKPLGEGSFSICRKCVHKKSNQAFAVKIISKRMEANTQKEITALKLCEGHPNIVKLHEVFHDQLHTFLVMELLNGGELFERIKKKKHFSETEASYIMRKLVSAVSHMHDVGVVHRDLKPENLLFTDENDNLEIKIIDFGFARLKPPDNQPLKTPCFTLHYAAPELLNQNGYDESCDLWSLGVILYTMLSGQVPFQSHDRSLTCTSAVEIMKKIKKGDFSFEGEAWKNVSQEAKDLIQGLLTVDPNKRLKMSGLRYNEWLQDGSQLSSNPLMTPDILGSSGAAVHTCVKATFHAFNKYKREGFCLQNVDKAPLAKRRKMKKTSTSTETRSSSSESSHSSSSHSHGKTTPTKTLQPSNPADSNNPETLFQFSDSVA

Plk3(h) = biological target: T6, Plk3(h) (Homo sapiens, UniProt Q9H4B4); experiment: Eurofins kinase panel; assay type: biochemical; details: read-out: Inhibition rate (%)
T6 construct: purchased Eurofins (KinaseProfiler)
T6 sequence (Q9H4B4 whole entry): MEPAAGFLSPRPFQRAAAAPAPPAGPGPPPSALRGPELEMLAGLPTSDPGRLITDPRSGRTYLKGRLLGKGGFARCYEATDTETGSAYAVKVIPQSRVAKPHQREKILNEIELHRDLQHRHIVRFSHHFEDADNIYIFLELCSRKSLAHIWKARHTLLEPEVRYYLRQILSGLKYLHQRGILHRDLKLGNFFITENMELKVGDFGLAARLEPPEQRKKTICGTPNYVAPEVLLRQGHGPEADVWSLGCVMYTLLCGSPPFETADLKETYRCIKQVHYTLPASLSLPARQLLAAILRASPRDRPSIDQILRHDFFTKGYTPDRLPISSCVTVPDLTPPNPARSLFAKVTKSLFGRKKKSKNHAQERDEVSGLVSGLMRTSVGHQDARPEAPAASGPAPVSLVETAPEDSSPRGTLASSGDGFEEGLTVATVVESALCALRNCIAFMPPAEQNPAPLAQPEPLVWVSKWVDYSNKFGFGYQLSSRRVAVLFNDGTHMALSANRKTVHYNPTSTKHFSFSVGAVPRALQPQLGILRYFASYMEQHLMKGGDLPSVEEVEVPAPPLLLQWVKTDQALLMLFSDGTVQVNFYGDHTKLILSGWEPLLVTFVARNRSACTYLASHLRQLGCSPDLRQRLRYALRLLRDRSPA

WNK3(h) = biological target: T7, WNK3(h) (Homo sapiens, UniProt Q9BYP7); experiment: Eurofins kinase panel; assay type: biochemical; details: read-out: Inhibition rate (%)
T7 construct: purchased Eurofins (KinaseProfiler)
T7 sequence (Q9BYP7 whole entry): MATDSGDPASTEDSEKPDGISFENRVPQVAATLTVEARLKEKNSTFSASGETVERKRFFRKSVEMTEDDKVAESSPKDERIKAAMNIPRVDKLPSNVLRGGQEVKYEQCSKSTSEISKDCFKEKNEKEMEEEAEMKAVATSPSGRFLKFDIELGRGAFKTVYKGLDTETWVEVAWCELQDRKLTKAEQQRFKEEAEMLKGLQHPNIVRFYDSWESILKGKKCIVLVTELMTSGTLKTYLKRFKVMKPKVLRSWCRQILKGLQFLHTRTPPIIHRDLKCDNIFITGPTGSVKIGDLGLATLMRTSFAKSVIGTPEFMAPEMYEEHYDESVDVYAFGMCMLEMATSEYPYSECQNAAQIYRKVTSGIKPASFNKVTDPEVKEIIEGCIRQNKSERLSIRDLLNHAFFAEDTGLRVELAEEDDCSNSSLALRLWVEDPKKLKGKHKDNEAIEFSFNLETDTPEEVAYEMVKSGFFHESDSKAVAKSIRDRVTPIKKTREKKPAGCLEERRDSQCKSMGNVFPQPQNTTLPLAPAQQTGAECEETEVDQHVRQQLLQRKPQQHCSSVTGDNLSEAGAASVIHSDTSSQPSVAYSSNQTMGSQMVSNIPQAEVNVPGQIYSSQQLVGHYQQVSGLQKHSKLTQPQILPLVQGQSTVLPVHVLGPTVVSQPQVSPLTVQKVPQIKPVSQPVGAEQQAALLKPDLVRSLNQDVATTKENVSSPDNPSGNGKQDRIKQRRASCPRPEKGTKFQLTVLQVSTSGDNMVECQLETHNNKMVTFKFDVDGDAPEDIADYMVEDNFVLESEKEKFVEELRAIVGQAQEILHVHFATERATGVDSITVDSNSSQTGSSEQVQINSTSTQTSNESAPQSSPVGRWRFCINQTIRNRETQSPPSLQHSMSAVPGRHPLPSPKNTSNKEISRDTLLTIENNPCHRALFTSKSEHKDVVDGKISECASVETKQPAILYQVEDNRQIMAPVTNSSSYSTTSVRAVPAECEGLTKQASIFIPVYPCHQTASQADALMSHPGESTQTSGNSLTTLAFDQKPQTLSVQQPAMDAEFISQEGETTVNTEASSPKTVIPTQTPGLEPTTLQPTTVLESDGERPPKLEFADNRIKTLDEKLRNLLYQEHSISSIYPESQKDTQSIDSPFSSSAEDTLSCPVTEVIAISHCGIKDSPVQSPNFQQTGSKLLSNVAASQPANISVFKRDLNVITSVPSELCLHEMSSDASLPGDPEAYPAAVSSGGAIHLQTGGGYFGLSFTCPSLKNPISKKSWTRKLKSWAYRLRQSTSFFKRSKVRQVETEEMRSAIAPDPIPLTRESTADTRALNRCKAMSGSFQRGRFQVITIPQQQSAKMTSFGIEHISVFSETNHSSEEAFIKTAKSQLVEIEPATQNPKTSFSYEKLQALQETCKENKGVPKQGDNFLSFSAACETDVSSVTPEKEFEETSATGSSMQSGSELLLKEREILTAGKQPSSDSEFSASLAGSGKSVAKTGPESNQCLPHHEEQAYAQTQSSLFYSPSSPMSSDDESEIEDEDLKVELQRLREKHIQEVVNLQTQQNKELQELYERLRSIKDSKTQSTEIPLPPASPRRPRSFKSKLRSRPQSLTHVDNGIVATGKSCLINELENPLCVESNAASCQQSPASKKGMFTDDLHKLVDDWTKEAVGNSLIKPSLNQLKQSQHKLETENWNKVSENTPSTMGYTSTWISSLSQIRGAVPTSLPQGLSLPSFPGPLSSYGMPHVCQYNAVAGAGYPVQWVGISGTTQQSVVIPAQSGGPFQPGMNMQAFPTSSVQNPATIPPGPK

Aurora-C(h) = biological target: T8, Aurora-C(h) (Homo sapiens, UniProt Q9UQB9); experiment: Eurofins kinase panel; assay type: biochemical; details: read-out: Inhibition rate (%)
T8 construct: purchased Eurofins (KinaseProfiler)
T8 sequence (Q9UQB9 1-309): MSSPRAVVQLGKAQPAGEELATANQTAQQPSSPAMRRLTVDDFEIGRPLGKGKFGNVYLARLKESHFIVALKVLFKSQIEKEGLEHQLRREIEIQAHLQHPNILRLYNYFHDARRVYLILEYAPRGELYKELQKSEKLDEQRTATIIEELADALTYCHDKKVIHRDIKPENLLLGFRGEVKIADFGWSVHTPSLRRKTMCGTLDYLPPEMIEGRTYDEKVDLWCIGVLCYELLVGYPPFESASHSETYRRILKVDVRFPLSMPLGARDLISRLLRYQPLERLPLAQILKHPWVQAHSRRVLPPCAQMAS

Aurora-A(h) = biological target: T9, Aurora-A(h) (Homo sapiens, UniProt O14965); experiment: Eurofins kinase panel; assay type: biochemical; details: read-out: Inhibition rate (%)
T9 construct: purchased Eurofins (KinaseProfiler)
T9 sequence (O14965 1-403): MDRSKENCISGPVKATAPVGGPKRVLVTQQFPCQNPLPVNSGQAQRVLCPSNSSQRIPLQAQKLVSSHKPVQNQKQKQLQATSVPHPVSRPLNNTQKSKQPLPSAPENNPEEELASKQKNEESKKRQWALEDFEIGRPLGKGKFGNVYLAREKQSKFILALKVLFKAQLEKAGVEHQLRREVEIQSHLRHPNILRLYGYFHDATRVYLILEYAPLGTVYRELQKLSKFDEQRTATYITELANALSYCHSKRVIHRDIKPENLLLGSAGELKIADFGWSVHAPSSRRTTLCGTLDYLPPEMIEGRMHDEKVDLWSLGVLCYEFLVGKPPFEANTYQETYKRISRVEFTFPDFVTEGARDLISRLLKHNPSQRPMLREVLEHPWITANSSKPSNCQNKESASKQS

[1] = tested on: 11 FGFR- or CSF-1R-dependent cancer cell lines; experiment: Cell proliferation assay, sensitive panel; assay type: cell-based
Experimental: The cancer cell lines indicated in Figure 3 were seeded in 96-well plates at a low density in growth medium. The next day, appropriate controls or the designated concentrations of the compounds were added to each well, and the cells were incubated for 72 h. HUVECs (passage 3) were seeded in 96-well plates in growth medium overnight and transferred to serum-free medium for 24 h. The following day, appropriate controls or the designated concentrations of the compounds were added to each well, and 100 ng/mL growth factor (bFGF or VEGF) was added to the indicated wells. The cells were incubated for 48 h. Finally, cell proliferation was determined using a sulforhodamine B (SRB) assay or a cell counting kit-8 (CCK-8) assay. […] IC50 values for proliferation curves were calculated using a 4-parameter logistic nonlinear regression model with SoftMax Pro Software (Molecular Devices, San Jose, USA).

Tie2 (h) = biological target: T10, Tie2 (h) (Homo sapiens, UniProt Q02763); experiment: Eurofins kinase panel; assay type: biochemical; details: read-out: Inhibition rate (%)
T10 construct: purchased Eurofins (KinaseProfiler)

cSRC(h) = biological target: T11, cSRC(h) (Homo sapiens, UniProt P12931); experiment: Eurofins kinase panel; assay type: biochemical; details: read-out: Inhibition rate (%)
T11 construct: purchased Eurofins (KinaseProfiler)
T11 sequence (P12931 whole entry): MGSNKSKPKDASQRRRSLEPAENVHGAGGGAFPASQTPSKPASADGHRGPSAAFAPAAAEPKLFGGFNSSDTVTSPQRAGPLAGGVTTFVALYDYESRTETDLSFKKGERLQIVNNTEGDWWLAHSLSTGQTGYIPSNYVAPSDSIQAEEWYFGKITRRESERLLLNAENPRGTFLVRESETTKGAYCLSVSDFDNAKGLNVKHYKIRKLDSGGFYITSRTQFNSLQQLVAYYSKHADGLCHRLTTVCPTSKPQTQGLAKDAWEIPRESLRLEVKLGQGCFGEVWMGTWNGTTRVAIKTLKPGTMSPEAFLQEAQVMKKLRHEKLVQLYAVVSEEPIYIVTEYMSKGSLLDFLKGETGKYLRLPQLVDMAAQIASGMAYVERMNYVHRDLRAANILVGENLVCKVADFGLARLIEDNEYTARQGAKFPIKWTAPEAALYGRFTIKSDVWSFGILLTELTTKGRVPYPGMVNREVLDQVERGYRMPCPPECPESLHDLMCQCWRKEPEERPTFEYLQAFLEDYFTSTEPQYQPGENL

FGFR2 = biological target: T12, FGFR2 (Homo sapiens, UniProt P21802); experiment: Kinase inhibition assay (ELISA); assay type: biochemical; details: mean ± SD
T12 construct: purchased Eurofins (Fremont, United States)

MST4(h) = biological target: T13, MST4(h) (Homo sapiens, UniProt Q9P289); experiment: Eurofins kinase panel; assay type: biochemical; details: read-out: Inhibition rate (%)
T13 construct: purchased Eurofins (KinaseProfiler)

Compound: COc1cc(OC)c(Cl)c(-c2ccc3c(NC(=O)c4ccc(N5CCNC(C)(C)C5)cc4)n[nH]c3n2)c1Cl [3D185]
- inhibition at 0.01 µM (ULK3(h); 10 nM): -8%
- inhibition at 0.1 µM (ULK3(h); 100 nM): 2%
- inhibition at 1 µM (ULK3(h); 1000 nM): -1%
- inhibition at 0.01 µM (JNK1α1(h); 10 nM): -3%
- inhibition at 0.1 µM (JNK1α1(h); 100 nM): -4%
- inhibition at 1 µM (JNK1α1(h); 1000 nM): 3%
- inhibition at 0.01 µM (PKBα(h); 10 nM): -6%
- inhibition at 0.1 µM (PKBα(h); 100 nM): -8%
- inhibition at 1 µM (PKBα(h); 1000 nM): -7%
- inhibition at 0.01 µM (GSK3α(h); 10 nM): 10%
- inhibition at 0.1 µM (GSK3α(h); 100 nM): 4%
- inhibition at 1 µM (GSK3α(h); 1000 nM): -5%
- inhibition at 0.01 µM (MSK1(h); 10 nM): 31%
- inhibition at 0.1 µM (MSK1(h); 100 nM): 19%
- inhibition at 1 µM (MSK1(h); 1000 nM): 24%
- inhibition at 0.01 µM (Plk3(h); 10 nM): 5%
- inhibition at 0.1 µM (Plk3(h); 100 nM): 1%
- inhibition at 1 µM (Plk3(h); 1000 nM): 6%
- inhibition at 0.01 µM (WNK3(h); 10 nM): -7%
- inhibition at 0.1 µM (WNK3(h); 100 nM): 12%
- inhibition at 1 µM (WNK3(h); 1000 nM): 71%
- inhibition at 0.01 µM (Aurora-C(h); 10 nM): -15%
- inhibition at 0.1 µM (Aurora-C(h); 100 nM): 6%
- inhibition at 1 µM (Aurora-C(h); 1000 nM): -2%
- inhibition at 0.01 µM (Aurora-A(h); 10 nM): 4%
- inhibition at 0.1 µM (Aurora-A(h); 100 nM): 5%
- inhibition at 1 µM (Aurora-A(h); 1000 nM): 3%
- IC50 ([1]; FGFR1-, FGFR2-, FGFR3- and CSF-1R-mediated proliferation, read-out: IC50 values, range over cell lines): 0.9 to 36.8 nM
- IC50 ([1]; mean over CSF-1R dependent and FGFRs dependent lines, read-out: Mean IC50): 17.3 nM
- inhibition at 0.01 µM (Tie2 (h); 10 nM): 19%
- inhibition at 0.1 µM (Tie2 (h); 100 nM): 64%
- inhibition at 1 µM (Tie2 (h); 1000 nM): 95%
- inhibition at 0.01 µM (cSRC(h); 10 nM): 26%
- inhibition at 0.1 µM (cSRC(h); 100 nM): 53%
- inhibition at 1 µM (cSRC(h); 1000 nM): 87%
- IC50 (FGFR2): 1.3 nM
- inhibition at 0.01 µM (MST4(h); 10 nM): 6%
- inhibition at 0.1 µM (MST4(h); 100 nM): 27%
- inhibition at 1 µM (MST4(h); 1000 nM): 70%
